This is an account of results in patent US11981658B2, “Substituted aminopyridine compounds as EGFR inhibitors” (YUHAN CORPORATION, priority 2021, dated 2024).

The structures appear in SMILES notation. Like-named read-outs stand apart in the source and are kept apart here.

Test [1] has as its target EGFR L858R/T790M/C797S (Homo sapiens, UniProt P00533, C797S/L858R/T790M). Briefly: Biochemical EGFR kinase inhibition assay (Lance Ultra TR-FRET), triple mutant L858R/T790M/C797S. Summed up:
(§1)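 Kinase activity is measured by TR-FRET phosphopeptide detection. Compounds span 0.003 μM to 10 μM; the 1 h reaction at room temperature is quenched with EDTA, then labelled antibody (2 nM) is incubated 60 min before reading.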

For test [2], the target named is EGFR Del19/C797S (Homo sapiens, UniProt P00533, C797S/DEL746-750). As to the kind of experiment: Biochemical EGFR kinase inhibition assay (Lance Ultra TR-FRET), double mutant del19/C797S. The method, boiled down:
as §1

The target in test [3] is EGFR Del19/T790M/C797S (Homo sapiens, UniProt P00533, C797S/DEL746-750/T790M). Briefly: Biochemical EGFR kinase inhibition assay (Lance Ultra TR-FRET), triple mutant del19/T790M/C797S. The method, boiled down:
as §1
Background: In TR-FRET formats the signal depends on donor and acceptor labels being close together.

For test [4], the target named is EGFR wildtype (WT) (Homo sapiens, UniProt P00533). Briefly: Biochemical EGFR kinase inhibition assay (Lance Ultra TR-FRET), wildtype. Summed up: as §1
The target in test [5] is EGFR L858R/C797S (Homo sapiens, UniProt P00533, C797S/L858R). Briefly: Biochemical EGFR kinase inhibition assay (Lance Ultra TR-FRET), double mutant L858R/C797S. Summed up:
as §1

Where [6] appears, read: IC50 L858R/T790M/C797S (nM), 100 μM ATP.
The mark [7] stands for this setting: Km ATP, read-out: IC50 L858R/T790M/C797S (nM) Km ATP.
[8] abbreviates: IC50 Del19/C797S (nM), 100 μM ATP.
Where [9] appears, read: Km ATP, read-out: IC50 Del19/C797S (nM) Km ATP.
Setting [10] is: IC50 Del19/T790M/C797S (nM), 100 μM ATP.
The mark [11] stands for this setting: Km ATP, read-out: IC50 Del19/T790M/C797S (nM) Km ATP.
[12] abbreviates: Km ATP, read-out: IC50 WT (nM) Km ATP.
[13] abbreviates: IC50 L858R/C797S (nM), 100 μM ATP.
[14] abbreviates: Km ATP, read-out: IC50 L858R/C797S (nM) Km ATP.

EGFR Del19/T790M/C797S, sequence (P00533 with tags, fused parts or gaps DEL746-750/T790M/C797S): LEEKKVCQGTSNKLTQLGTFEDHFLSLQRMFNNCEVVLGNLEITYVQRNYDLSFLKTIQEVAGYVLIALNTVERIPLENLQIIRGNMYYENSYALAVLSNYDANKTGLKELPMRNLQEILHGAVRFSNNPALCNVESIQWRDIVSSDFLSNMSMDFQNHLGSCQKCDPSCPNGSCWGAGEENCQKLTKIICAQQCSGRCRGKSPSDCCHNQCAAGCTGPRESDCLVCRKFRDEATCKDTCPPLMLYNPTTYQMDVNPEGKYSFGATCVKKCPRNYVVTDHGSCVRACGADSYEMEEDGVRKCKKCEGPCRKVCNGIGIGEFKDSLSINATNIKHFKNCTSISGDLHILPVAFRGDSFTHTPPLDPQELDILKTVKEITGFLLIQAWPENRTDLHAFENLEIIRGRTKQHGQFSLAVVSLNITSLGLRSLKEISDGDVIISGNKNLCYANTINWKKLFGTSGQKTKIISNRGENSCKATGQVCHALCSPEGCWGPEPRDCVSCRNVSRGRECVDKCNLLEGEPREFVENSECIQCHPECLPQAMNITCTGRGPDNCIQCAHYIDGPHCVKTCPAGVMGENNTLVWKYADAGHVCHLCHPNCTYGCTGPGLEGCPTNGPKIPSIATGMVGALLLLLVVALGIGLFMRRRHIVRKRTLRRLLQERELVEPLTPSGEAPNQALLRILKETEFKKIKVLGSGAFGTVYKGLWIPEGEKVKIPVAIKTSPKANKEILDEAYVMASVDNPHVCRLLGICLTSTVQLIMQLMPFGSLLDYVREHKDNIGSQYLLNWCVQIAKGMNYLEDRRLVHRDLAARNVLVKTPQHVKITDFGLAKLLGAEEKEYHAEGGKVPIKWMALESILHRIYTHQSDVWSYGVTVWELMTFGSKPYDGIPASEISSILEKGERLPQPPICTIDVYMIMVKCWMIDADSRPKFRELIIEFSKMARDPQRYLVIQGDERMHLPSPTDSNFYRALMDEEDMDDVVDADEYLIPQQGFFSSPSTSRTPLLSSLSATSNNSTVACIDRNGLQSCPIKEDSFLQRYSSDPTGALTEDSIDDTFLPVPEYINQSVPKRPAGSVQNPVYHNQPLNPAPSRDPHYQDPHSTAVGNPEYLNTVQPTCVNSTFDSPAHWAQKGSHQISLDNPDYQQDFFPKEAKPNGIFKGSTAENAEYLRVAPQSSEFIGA
EGFR Del19/C797S, sequence (P00533 with tags, fused parts or gaps DEL746-750/C797S): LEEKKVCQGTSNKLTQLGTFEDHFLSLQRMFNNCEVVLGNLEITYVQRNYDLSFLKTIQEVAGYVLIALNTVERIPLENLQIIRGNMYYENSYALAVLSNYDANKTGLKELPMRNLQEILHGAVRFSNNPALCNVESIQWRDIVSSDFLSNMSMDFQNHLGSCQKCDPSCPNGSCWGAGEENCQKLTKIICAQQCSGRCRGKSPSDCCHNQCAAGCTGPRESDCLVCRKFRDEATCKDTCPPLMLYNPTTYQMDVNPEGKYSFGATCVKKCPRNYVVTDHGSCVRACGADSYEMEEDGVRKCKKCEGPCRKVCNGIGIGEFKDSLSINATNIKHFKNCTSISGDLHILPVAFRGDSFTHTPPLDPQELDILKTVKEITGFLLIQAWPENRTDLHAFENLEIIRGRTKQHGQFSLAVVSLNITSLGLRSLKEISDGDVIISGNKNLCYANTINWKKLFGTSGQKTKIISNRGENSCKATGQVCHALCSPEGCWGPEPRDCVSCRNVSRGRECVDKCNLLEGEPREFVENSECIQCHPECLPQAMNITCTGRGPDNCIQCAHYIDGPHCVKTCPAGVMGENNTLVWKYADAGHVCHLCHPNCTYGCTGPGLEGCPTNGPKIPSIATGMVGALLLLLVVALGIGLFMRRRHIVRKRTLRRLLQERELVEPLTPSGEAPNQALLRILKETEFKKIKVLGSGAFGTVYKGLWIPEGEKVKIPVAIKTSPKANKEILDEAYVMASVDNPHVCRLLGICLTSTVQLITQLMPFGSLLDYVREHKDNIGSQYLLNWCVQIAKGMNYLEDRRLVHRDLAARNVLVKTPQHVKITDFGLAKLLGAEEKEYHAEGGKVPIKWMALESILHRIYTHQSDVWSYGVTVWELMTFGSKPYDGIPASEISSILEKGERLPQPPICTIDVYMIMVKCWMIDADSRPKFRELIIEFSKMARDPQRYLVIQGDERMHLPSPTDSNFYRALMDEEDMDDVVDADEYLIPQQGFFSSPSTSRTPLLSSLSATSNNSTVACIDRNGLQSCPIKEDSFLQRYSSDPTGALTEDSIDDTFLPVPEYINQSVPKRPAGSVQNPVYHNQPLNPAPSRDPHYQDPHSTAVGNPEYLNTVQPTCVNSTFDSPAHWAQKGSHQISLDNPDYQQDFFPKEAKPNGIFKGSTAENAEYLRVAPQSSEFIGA
EGFR L858R/C797S, sequence (P00533 25-1210 C797S/L858R): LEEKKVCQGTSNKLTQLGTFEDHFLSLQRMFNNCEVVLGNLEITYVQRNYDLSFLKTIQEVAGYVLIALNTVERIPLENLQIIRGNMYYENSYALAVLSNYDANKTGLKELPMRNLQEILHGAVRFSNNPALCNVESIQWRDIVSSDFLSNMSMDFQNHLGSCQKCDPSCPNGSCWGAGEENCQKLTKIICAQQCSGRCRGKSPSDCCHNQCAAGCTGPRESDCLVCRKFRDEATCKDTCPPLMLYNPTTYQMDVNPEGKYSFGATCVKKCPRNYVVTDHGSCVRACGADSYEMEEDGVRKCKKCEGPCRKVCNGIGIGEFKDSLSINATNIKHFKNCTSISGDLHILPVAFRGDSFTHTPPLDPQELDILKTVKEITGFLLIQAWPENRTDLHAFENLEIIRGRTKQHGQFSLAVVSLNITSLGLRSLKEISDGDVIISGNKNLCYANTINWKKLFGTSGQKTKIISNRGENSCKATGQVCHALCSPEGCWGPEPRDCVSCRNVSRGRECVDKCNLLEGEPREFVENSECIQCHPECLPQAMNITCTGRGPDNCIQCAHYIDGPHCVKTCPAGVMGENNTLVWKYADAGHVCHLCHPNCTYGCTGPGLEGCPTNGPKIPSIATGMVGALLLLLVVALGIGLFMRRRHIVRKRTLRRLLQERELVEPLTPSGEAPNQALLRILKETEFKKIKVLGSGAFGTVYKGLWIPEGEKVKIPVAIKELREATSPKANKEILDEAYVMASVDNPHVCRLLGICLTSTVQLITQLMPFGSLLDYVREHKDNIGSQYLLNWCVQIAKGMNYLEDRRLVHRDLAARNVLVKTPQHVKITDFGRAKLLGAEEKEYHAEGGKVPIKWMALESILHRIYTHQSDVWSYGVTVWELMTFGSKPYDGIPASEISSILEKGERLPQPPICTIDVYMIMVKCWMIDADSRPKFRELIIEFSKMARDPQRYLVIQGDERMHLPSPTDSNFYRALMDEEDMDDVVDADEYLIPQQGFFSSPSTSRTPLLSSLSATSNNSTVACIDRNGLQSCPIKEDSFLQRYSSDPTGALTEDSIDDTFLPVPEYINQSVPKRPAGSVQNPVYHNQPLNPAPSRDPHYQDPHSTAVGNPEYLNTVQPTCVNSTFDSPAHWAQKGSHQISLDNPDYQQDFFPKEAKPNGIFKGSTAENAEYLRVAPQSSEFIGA
EGFR L858R/T790M/C797S, sequence (P00533 25-1210 T790M/C797S/L858R): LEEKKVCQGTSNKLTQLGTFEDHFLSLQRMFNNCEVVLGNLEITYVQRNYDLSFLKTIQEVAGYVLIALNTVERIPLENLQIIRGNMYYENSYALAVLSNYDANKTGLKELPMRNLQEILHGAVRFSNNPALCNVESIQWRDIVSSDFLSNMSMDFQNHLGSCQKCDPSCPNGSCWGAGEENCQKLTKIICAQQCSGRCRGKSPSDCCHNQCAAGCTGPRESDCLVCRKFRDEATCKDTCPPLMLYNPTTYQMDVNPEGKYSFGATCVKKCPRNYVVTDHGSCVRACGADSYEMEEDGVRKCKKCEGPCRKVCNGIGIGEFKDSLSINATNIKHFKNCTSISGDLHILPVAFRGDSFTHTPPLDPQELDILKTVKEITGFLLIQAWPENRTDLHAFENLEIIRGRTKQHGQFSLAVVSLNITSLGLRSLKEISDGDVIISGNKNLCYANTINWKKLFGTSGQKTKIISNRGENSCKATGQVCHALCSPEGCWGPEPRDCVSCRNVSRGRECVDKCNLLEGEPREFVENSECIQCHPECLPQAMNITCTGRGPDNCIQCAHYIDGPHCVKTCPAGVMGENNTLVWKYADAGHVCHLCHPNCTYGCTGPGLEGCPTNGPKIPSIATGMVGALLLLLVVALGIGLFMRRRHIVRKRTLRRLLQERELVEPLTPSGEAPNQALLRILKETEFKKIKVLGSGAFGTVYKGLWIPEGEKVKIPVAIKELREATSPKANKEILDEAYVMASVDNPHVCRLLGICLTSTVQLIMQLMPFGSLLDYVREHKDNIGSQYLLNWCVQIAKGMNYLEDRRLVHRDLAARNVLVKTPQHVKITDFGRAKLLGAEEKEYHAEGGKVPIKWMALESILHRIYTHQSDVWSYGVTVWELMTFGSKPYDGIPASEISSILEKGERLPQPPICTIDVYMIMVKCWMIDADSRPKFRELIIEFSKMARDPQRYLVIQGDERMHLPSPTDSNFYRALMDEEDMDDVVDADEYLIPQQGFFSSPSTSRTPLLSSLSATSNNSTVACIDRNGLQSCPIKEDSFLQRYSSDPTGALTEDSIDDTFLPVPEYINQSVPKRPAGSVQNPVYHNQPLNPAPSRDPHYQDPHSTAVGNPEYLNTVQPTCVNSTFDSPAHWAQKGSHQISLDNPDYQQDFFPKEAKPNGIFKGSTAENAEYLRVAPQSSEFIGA

On to `C[C@]1(O)CC[C@@H](Nc2cc(Nc3ccnc(-c4cnn(S(=O)(=O)C5CC5)c4)n3)ncc2C#Cc2cnn(C(F)(F)F)c2)CC1` [Example 105, (1s,4s)-4-((2-((2-(1-(Cyclopropylsulfonyl)-1H-pyrazol-4-yl)pyrimidin-4-yl)amino)-5-((1-(trifluoromethyl)-1H-pyrazol-4-yl)ethynyl)pyridin-4-yl)amino)-1-methylcyclohexan-1-ol], for which the IC50 in test [1] (setting [6]) is 6.5 nM; in test [1] (setting [7]), 1.5 nM; in test [2] (setting [8]), 64.2 nM; in test [2] (setting [9]), 48.7 nM; in test [3] (setting [10]) it was 3.2 nM; in test [3] (setting [11]), 2.3 nM. Further, the IC50 in test [4] (IC50 WT (nM), 100 μM ATP) was over 10000 nM; in test [4] (setting [12]), 2520 nM; in test [5] (setting [13]), 2200 nM; in test [5] (setting [14]) it was 100 nM.
Regarding `Cn1cc(C#Cc2cnc(Nc3ccnc(-c4cnn(S(=O)(=O)C5CC5)c4)n3)cc2N2CCC(NCCO)CC2)cn1` [Example 131, 2-((1-(2-((2-(1-(Cyclopropylsulfonyl)-1H-pyrazol-4-yl)pyrimidin-4-yl)amino)-5-((1-methyl-1H-pyrazol-4-yl)ethynyl)pyridin-4-yl)piperidin-4-yl)amino)ethan-1-ol], the IC50 in test [1] (setting [6]) was 2.6 nM; in test [2] (setting [8]), 50.8 nM; in test [3] (setting [10]), 0.7 nM; in test [4] (IC50 WT (nM), 100 μM ATP), over 10000 nM; in test [5] (setting [13]), 35.6 nM.
In the same order, the values of `O=C(N1CCC(C#Cc2cnc(Nc3ccnc(-c4cnn(S(=O)(=O)C5CC5)c4)n3)cc2NCC2CCC(O)CC2)C1)C(F)(F)F` (stereo not drawn) [Example 409, 1-(3-((6-((2-(1-(Cyclopropylsulfonyl)-1H-pyrazol-4-yl)pyrimidin-4-yl)amino)-4-((((1 r,4r)-4-hydroxycyclohexyl)methyl)amino)pyridin-3-yl)ethynyl)pyrrolidin-1-yl)-2,2,2-trifluoroethan-1-one] are 10.5 nM, 81.3 nM, 4.3 nM, over 10000 nM and 648 nM.
Consider `CC(=O)N1CCC(n2cc(C#Cc3cnc(Nc4ccnc(-c5cnn(S(=O)(=O)C6CC6)c5)n4)cc3N3CCC(=O)CC3)cn2)CC1` [Example 108, 1-(5-((1-(1-Acetylpiperidin-4-yl)-1H-pyrazol-4-yl)ethynyl)-2-((2-(1-(cyclopropylsulfonyl)-1H-pyrazol-4-yl)pyrimidin-4-yl)amino)pyridin-4-yl)piperidin-4-one], for which the IC50 in test [1] (setting [6]) came to 7.8 nM; in test [1] (setting [7]), 1.6 nM; in test [2] (setting [8]) it was 29.8 nM; in test [2] (setting [9]), 25.5 nM; in test [3] (setting [10]), 1.2 nM; in test [3] (setting [11]) it was 1.1 nM. Further, the IC50 in test [4] (IC50 WT (nM), 100 μM ATP) is over 10000 nM; in test [4] (setting [12]), 126 nM; in test [5] (setting [13]), 154 nM; in test [5] (setting [14]), 8.4 nM.
As for `CC1OCCC1C#Cc1cnc(Nc2ccnc(-c3cnn(S(=O)(=O)C4CC4)c3)n2)cc1NC1CCC(CO)CC1` (stereo not drawn) [Example 430, ((1s,4s)-4-((2-((2-(1-(Cyclopropylsulfonyl)-1H-pyrazol-4-yl)pyrimidin-4-yl)amino)-5-((2-methyltetrahydrofuran-3-yl)ethynyl)pyridin-4-yl)amino)cyclohexyl)methanol], the IC50 in test [1] (setting [6]) worked out at 0.9 nM; in test [1] (Km ATP, read-out: IC50 L858R/T790M/C797S (nM), Km ATP), 0.3 nM; in test [2] (setting [8]), 3.8 nM; in test [2] (Km ATP, read-out: IC50 Del19/C797S (nM), Km ATP), 1.3 nM; in test [3] (setting [10]), 1 nM; in test [3] (Km ATP, read-out: IC50 Del19/T790M/C797S (nM), Km ATP) it was 0.6 nM. The IC50 in test [4] (IC50 WT (nM), 100 μM ATP) worked out at 7480 nM; in test [4] (Km ATP, read-out: IC50 WT (nM), Km ATP), 6.9 nM; in test [5] (setting [13]) it was 107 nM; in test [5] (Km ATP, read-out: IC50 L858R/C797S (nM), Km ATP), 4.3 nM.
On to `CN(C)C[C@@H]1CCCN(c2cc(Nc3ccnc(-c4cnn(S(=O)(=O)C5CC5)c4)n3)ncc2C#Cc2cnn(CCF)c2)C1` [Example 385, (S)-2-(1-(Cyclopropylsulfonyl)-1H-pyrazol-4-yl)-N-(4-(3-((dimethylamino)methyl)piperidin-1-yl)-5-((1-(2-fluoroethyl)-1H-pyrazol-4-yl)ethynyl)pyridin-2-yl)pyrimidin-4-amine], for which the IC50 in test [1] (setting [6]) is 2.1 nM; in test [2] (setting [8]) it was 11.2 nM; in test [3] (setting [10]), 0.7 nM; in test [4] (IC50 WT (nM), 100 μM ATP), over 10000 nM; in test [5] (setting [13]), 37.6 nM.
